Test results: ChEMBL document CHEMBL6153030, “Design, synthesis, and biological evaluation of novel pleuromutilin derivatives with methicillin-resistant Staphylococcus aureus -targeting phenol linker groups” (Eur J Med Chem, 2025)
≈ marks a conversion by molar mass, not a printed value.

Key:
Assay type in all cases: functional
Streptococcus pneumoniae = assay: Antibacterial activity against Streptococcus pneumoniae ATCC 49619 assessed as inhibition of bacterial growth incubated for 96 hrs by broth microdilution method
[1] = tested on: Staphylococcus epidermidis; assay: Antibacterial activity against methicillin-resistant Staphylococcus epidermidis ATCC 51625 assessed as inhibition of bacterial growth incubated for 96 hrs by broth microdilution method
Escherichia coli = assay: Antibacterial activity against Escherichia coli ATCC 25922 assessed as inhibition of bacterial growth incubated for 96 hrs by broth microdilution method
Staphylococcus aureus [2] = assay: Antibacterial activity against methicillin-resistant Staphylococcus aureus ATCC43300 assessed as inhibition of bacterial growth incubated for 96 hrs by broth microdilution method
Staphylococcus aureus [3] = assay: Antibacterial activity against Staphylococcus aureus ATCC 29213 assessed as inhibition of bacterial growth incubated for 96 hrs by broth microdilution method

SMILES	MIC (Streptococcus pneumoniae)	MIC [1]	MIC (Escherichia coli)	MIC (Staphylococcus aureus [2])	MIC (Staphylococcus aureus [3])
C=C[C@]1(C)C[C@@H](OC(=O)CSc2ccccc2O)[C@]2(C)[C@H](C)CC[C@]3(CCC(=O)[C@H]32)[C@@H](C)[C@@H]1O	0.125 µg/mL (≈ 0.257 µM)	0.125 µg/mL (≈ 0.257 µM)	> 64 µg/mL	0.125 µg/mL (≈ 0.257 µM)	0.125 µg/mL (≈ 0.257 µM)
C=C[C@]1(C)C[C@@H](OC(=O)CSc2ccc(OCC(=O)N3CCS(=O)(=O)CC3)cc2)[C@]2(C)[C@H](C)CC[C@]3(CCC(=O)[C@H]32)[C@@H](C)[C@@H]1O	0.25 µg/mL (≈ 0.378 µM)	< 0.031 µg/mL	> 64 µg/mL	< 0.031 µg/mL	< 0.031 µg/mL
C=C[C@]1(C)C[C@@H](OC(=O)CSc2ccc(O)cc2)[C@]2(C)[C@H](C)CC[C@]3(CCC(=O)[C@H]32)[C@@H](C)[C@@H]1O	0.125 µg/mL (≈ 0.257 µM)	0.062 µg/mL (≈ 0.127 µM)	> 64 µg/mL	0.062 µg/mL (≈ 0.127 µM)	0.062 µg/mL (≈ 0.127 µM)
C=C[C@]1(C)C[C@@H](OC(=O)CSc2ccccc2OCc2ccc(-c3ccccc3C#N)cc2)[C@]2(C)[C@H](C)CC[C@]3(CCC(=O)[C@H]32)[C@@H](C)[C@@H]1O	2 µg/mL (≈ 2.95 µM)	4 µg/mL (≈ 5.9 µM)	> 64 µg/mL	2 µg/mL (≈ 2.95 µM)	2 µg/mL (≈ 2.95 µM)
C=C[C@]1(C)C[C@@H](OC(=O)CSc2ccc(OCc3ccc(-c4ccccc4C#N)cc3)cc2)[C@]2(C)[C@H](C)CC[C@]3(CCC(=O)[C@H]32)[C@@H](C)[C@@H]1O	2 µg/mL (≈ 2.95 µM)	4 µg/mL (≈ 5.9 µM)	> 64 µg/mL	2 µg/mL (≈ 2.95 µM)	4 µg/mL (≈ 5.9 µM)
C=C[C@]1(C)C[C@@H](OC(=O)CSc2ccccc2OCC#CC)[C@]2(C)[C@H](C)CC[C@]3(CCC(=O)[C@H]32)[C@@H](C)[C@@H]1O	< 0.031 µg/mL	0.125 µg/mL (≈ 0.232 µM)	> 64 µg/mL	0.125 µg/mL (≈ 0.232 µM)	0.125 µg/mL (≈ 0.232 µM)
C=CCCOc1ccc(SCC(=O)O[C@@H]2C[C@@](C)(C=C)[C@@H](O)[C@H](C)[C@]34CCC(=O)[C@H]3[C@@]2(C)[C@H](C)CC4)cc1	0.125 µg/mL (≈ 0.231 µM)	0.125 µg/mL (≈ 0.231 µM)	> 64 µg/mL	0.25 µg/mL (≈ 0.462 µM)	0.25 µg/mL (≈ 0.462 µM)
C=C[C@]1(C)C[C@@H](OC(=O)CSc2ccccc2OCc2ccc(C(=O)OC(C)(C)C)cc2)[C@]2(C)[C@H](C)CC[C@]3(CCC(=O)[C@H]32)[C@@H](C)[C@@H]1O	16 µg/mL (≈ 23.6 µM)	16 µg/mL (≈ 23.6 µM)	> 64 µg/mL	32 µg/mL (≈ 47.3 µM)	16 µg/mL (≈ 23.6 µM)
C=C[C@]1(C)C[C@@H](OC(=O)CSc2ccc(OCc3ccc(C(=O)OC(C)(C)C)cc3)cc2)[C@]2(C)[C@H](C)CC[C@]3(CCC(=O)[C@H]32)[C@@H](C)[C@@H]1O	8 µg/mL (≈ 11.8 µM)	8 µg/mL (≈ 11.8 µM)	> 64 µg/mL	32 µg/mL (≈ 47.3 µM)	4 µg/mL (≈ 5.91 µM)
C=CCCOc1cccc(SCC(=O)O[C@@H]2C[C@@](C)(C=C)[C@@H](O)[C@H](C)[C@]34CCC(=O)[C@H]3[C@@]2(C)[C@H](C)CC4)c1	0.5 µg/mL (≈ 0.925 µM)	0.25 µg/mL (≈ 0.462 µM)	> 64 µg/mL	0.5 µg/mL (≈ 0.925 µM)	0.5 µg/mL (≈ 0.925 µM)
C=C[C@]1(C)C[C@@H](OC(=O)CSc2ccc(OCCCC)cc2)[C@]2(C)[C@H](C)CC[C@]3(CCC(=O)[C@H]32)[C@@H](C)[C@@H]1O	0.5 µg/mL (≈ 0.921 µM)	0.5 µg/mL (≈ 0.921 µM)	> 64 µg/mL	1 µg/mL (≈ 1.84 µM)	2 µg/mL (≈ 3.68 µM)
C=C[C@]1(C)C[C@@H](OC(=O)CSc2cccc(OCc3ccc(C)cc3)c2)[C@]2(C)[C@H](C)CC[C@]3(CCC(=O)[C@H]32)[C@@H](C)[C@@H]1O	16 µg/mL (≈ 27.1 µM)	32 µg/mL (≈ 54.2 µM)	> 64 µg/mL	16 µg/mL (≈ 27.1 µM)	16 µg/mL (≈ 27.1 µM)
C=C[C@]1(C)C[C@@H](OC(=O)CSc2cccc(OCc3ccc(-c4ccccc4C#N)cc3)c2)[C@]2(C)[C@H](C)CC[C@]3(CCC(=O)[C@H]32)[C@@H](C)[C@@H]1O	2 µg/mL (≈ 2.95 µM)	8 µg/mL (≈ 11.8 µM)	> 64 µg/mL	2 µg/mL (≈ 2.95 µM)	4 µg/mL (≈ 5.9 µM)
C=C[C@]1(C)C[C@@H](OC(=O)CSc2cccc(OCc3ccc(C(=O)OC(C)(C)C)cc3)c2)[C@]2(C)[C@H](C)CC[C@]3(CCC(=O)[C@H]32)[C@@H](C)[C@@H]1O	8 µg/mL (≈ 11.8 µM)	8 µg/mL (≈ 11.8 µM)	> 64 µg/mL	32 µg/mL (≈ 47.3 µM)	4 µg/mL (≈ 5.91 µM)
C=C[C@]1(C)C[C@@H](OC(=O)CSc2ccc(OCc3ccc(C)cc3)cc2)[C@]2(C)[C@H](C)CC[C@]3(CCC(=O)[C@H]32)[C@@H](C)[C@@H]1O	16 µg/mL (≈ 27.1 µM)	16 µg/mL (≈ 27.1 µM)	> 64 µg/mL	16 µg/mL (≈ 27.1 µM)	16 µg/mL (≈ 27.1 µM)
C=C[C@]1(C)C[C@@H](OC(=O)CSc2ccccc2OCCCC)[C@]2(C)[C@H](C)CC[C@]3(CCC(=O)[C@H]32)[C@@H](C)[C@@H]1O	0.5 µg/mL (≈ 0.921 µM)	0.25 µg/mL (≈ 0.461 µM)	> 64 µg/mL	0.5 µg/mL (≈ 0.921 µM)	0.5 µg/mL (≈ 0.921 µM)
C=C[C@]1(C)C[C@@H](OC(=O)CSc2ccc(OCC#CC)cc2)[C@]2(C)[C@H](C)CC[C@]3(CCC(=O)[C@H]32)[C@@H](C)[C@@H]1O	0.062 µg/mL (≈ 0.115 µM)	0.125 µg/mL (≈ 0.232 µM)	> 64 µg/mL	0.25 µg/mL (≈ 0.464 µM)	0.25 µg/mL (≈ 0.464 µM)
C=C[C@]1(C)C[C@@H](OC(=O)CSc2cccc(OCC#CC)c2)[C@]2(C)[C@H](C)CC[C@]3(CCC(=O)[C@H]32)[C@@H](C)[C@@H]1O	< 0.031 µg/mL	0.125 µg/mL (≈ 0.232 µM)	> 64 µg/mL	0.125 µg/mL (≈ 0.232 µM)	0.125 µg/mL (≈ 0.232 µM)
C=C[C@]1(C)C[C@@H](OC(=O)CSc2cccc(O)c2)[C@]2(C)[C@H](C)CC[C@]3(CCC(=O)[C@H]32)[C@@H](C)[C@@H]1O	0.125 µg/mL (≈ 0.257 µM)	0.125 µg/mL (≈ 0.257 µM)	> 64 µg/mL	0.062 µg/mL (≈ 0.127 µM)	0.125 µg/mL (≈ 0.257 µM)
C=CCCOc1ccccc1SCC(=O)O[C@@H]1C[C@@](C)(C=C)[C@@H](O)[C@H](C)[C@]23CCC(=O)[C@H]2[C@@]1(C)[C@H](C)CC3	< 0.031 µg/mL	0.031 µg/mL (≈ 0.0573 µM)	> 64 µg/mL	0.125 µg/mL (≈ 0.231 µM)	< 0.031 µg/mL
C=C[C@]1(C)C[C@@H](OC(=O)CSc2cccc(OCCCC)c2)[C@]2(C)[C@H](C)CC[C@]3(CCC(=O)[C@H]32)[C@@H](C)[C@@H]1O	2 µg/mL (≈ 3.68 µM)	1 µg/mL (≈ 1.84 µM)	> 64 µg/mL	2 µg/mL (≈ 3.68 µM)	2 µg/mL (≈ 3.68 µM)
C=C[C@]1(C)C[C@@H](OC(=O)CSc2ccccc2OCc2ccc(C)cc2)[C@]2(C)[C@H](C)CC[C@]3(CCC(=O)[C@H]32)[C@@H](C)[C@@H]1O	16 µg/mL (≈ 27.1 µM)	32 µg/mL (≈ 54.2 µM)	> 64 µg/mL	32 µg/mL (≈ 54.2 µM)	16 µg/mL (≈ 27.1 µM)
